Columns and labels:
[1] = tested on: Human prostate cancer cell line PC-3; test: Combination study with Paclitaxel, XTT; type: cell-based; conditions: 24 h
Experimental: Human prostate cancer cell line PC-3 is obtained from American Tissue Culture Collection (ATCC) and maintained in F-12K Nutrient Mixture (21127-022, Gibco BRL) containing 10% fetal bovine serum (FBS, Hyclone), 1% L-Glutamine-200 mM (25030-149, Gibco BRL) and 0.5% Penicillin Streptomycin Solution (P-7539, Sigma). RPMI1640 medium (MED-008, IWAKI) supplemented with 10% FBS and 0.5% Penicillin Streptomycin Solution is used in the following experiment. Exponentially growing PC-3 cells are collected by trypsinization and washed twice with fresh medium. The cells are then counted, resuspended in fresh medium at a density of 5×10^4 cells/ml and distributed in triplicate into flat-bottomed 96 well plates (3598, Coming-Coster) in a total volume of 100 μl/well one day before the start of the experiment. A representative anti-cancer drug, Paclitaxel (169-18611, Wako) dissolved in dimethylsulfoxide (10 mg/ml) is diluted in fresh medium and then added to the 96-well plates containing the cells at 50 μl/well. The final concentrations of dimethylsulfoxide are less than 0.1%. […] After incubation for a further 24 hr, 50 μl of Minimum Essential Medium (11095-098, Gibco BRL) containing 1 mg/ml of XTT and […] of PMS is added to the wells and the plates are incubated for 6 hr. OD450 is then measured by SPECTRA MAX 250 (Molecular Devices) and the cell viability is calculated as follows.

2LMP xenografts = test: TUNEL analysis of apoptosis in xenografts; type: in vivo, athymic nude mice; conditions: day 14; untreated 1%
Experimental: One group of mice was untreated. The xeno grafts were dissected for the study of apoptosis on day 14 after tumor cell injection. The reason for the substantial reduction in treatment intensity compared to our standard treatment protocol was to allow adequate tumor tissue for analysis on day 14. Tunel assay for apoptosis in tumor xenografts was performed as follows. Five-micron paraffin sections of tissue were mounted on Superfrost/Plus slides and heated at 58° C. for 1 h. Tissue sections were deparaffinized in three changes of xylene and rehydrated with one change of absolute ethanol, 95% ethanol, and 70% ethanol, each in 5-min increments. Then, the sections were placed in Tris-buffered saline (0.5M Tris base, 0.15 M NaCl, 0.0002% Triton X-100, pH 7.6). Apoptotic nuclei were detected using an Apop Tag Peroxidase kit (Intergen, Purchase, N.Y.). Proteinase K (20 μg/ml in distilled deionized H2O) was added to the tissue specimens and incubated at room temperature for 15 min. Endogenous peroxidases were quenched with an aqueous solution of 3% hydrogen peroxide for 5 min. […] Approximately 10 random fields were evaluated for percentage of Tunel stained and percentage of intensely stained apoptotic bodies throughout the tissue.

[2] = tested on: 2LMP human breast cancer xenografts; test: 2LMP breast cancer xenografts in athymic nude mice; type: in vivo
Experimental: Nude mice were inoculated s.c. with the human breast cancer cell line, 2LMP. Treatment with i.p. doses of 200 μg of 2E12 occurred on days 7, 10, 14, 17, 21, and 24 after tumor cell injection. Animals received i.v. adriamycin (doxorubicin) (6 mg/kg) on days 8, 12, and 16.
Athymic nude mice were injected s.c. with 3×10^7 2LMP cells. […] The growth of tumors was monitored over time. […] Tumor size and regression rates were determined.
Data from 6 independent experiments were analyzed by individual experiment. Treatment combinations were compared with respect to in vivo anti-tumor efficacy, i.e., inhibition of tumor growth, which was measured as three endpoints; extension of tumor doubling times, percentage of tumor regressions, and growth rates over time. The actual number of days at which the tumor doubled in surface area (product of two diameters) relative to baseline on day 7 after tumor cell injection was used in the doubling time analysis. The nonparametric Kruskal-Wallis test was used for median tumor doubling time comparisons between treatments. Fisher's exact test was used to compare the proportions of tumor regressions and relapse-free regressions across treatment groups. To determine if any combination therapy produced significant synergistic inhibition of tumor growth, i.e., more than additive, the growth curves from the serial area measurements were compared using a linear mixed model approach over the first 3 weeks after start of therapy (Lindsey, J. K. Models for Repeated Measurements, pp. 100-142, Oxford, 1993). To test for synergistic effects of the combination therapies, an interaction term was included in the model. If the interaction term was significant and the effect was inhibition of growth at a rate greater than additive then the interaction was considered synergistic.
A total of 166 animals, 10 treatment groups, and 6 independent experiments were included in the aggregate analysis. Treatment combinations were compared with respect to in vivo anti-tumor efficacy. The median tumor doubling times were analyzed using the Kruskal-Wallis test and Fisher's exact test was used to compare the proportions of tumor regressions and relapse-free regressions across treatment groups.

Jurkat cells = test: Apoptosis-inducing activity of humanized antibody, XTT; type: cell-based, human; conditions: 12 hours
Experimental: Jurkat cells cultured in RPM11640 medium with 10% FCS (Gibco BRL) at 37° C. for 3 days in the presence of 5% CO2 are dispensed into each well of a 96-well microplate (Sumitomo Bakelite) at 50 μl per well. […] Each of the solutions of the expression products thus adjusted to 100 ng/ml is used to produce serial dilutions by repeating serial 2-fold dilution with RPM1640 containing 10% FCS. […] After reacting at 37° C. for 12 hours, 50 μl of 25 μM PMS (phenazine methosulfate; Sigma Chemical Co.) containing 1 mg/ml XTT (2,3-bis[2-methoxy-4-nitro-5-sulfophenyl]-2H-tetrazolium-5-carboxyaniride inner salt; Sigma Chemical Co.) is added (final concentrations of 250 μg/ml for XTT and 5 μM for PMS). After incubating for 3 hours, the absorbance at 450 nm of each well is measured to calculate the cell viability by using the reduction ability of mitochondria as the index.
The viability of the cells in each well is calculated according to the following formula: Viability (%)=100×(a−b)/(c−b) wherein “a” is the measurement of a test well, “b” is the measurement of a well with no cells, and “c” is the measurement of a well with no antibody added.
Jurkat cells cultured in RPMI1640 medium with 10% FCS (Gibco BRL) at 37° C. for 3 days in the presence of 5% CO2 are dispensed into each well of a 96-well microplate (Sumitomo Bakelite) at 50 μl per well. […]

[3] = aggregate, number of animals (%)

Row | Molecule | viability at 0.0001 µg/mL [1] [%] | intense TUNEL stained cells (2LMP xenografts) [%] | Complete Regressions No relapse (%) [2, 3] | Complete Regressions Total (%) [2, 3] | complete regressions of tumor ([2]; individual experiments (FIG. 25-27), animals) | apoptosis-inducing activity (Jurkat cells)
1 | CC(=O)O[C@H]1C(=O)[C@@]2(C)[C@H]([C@H](OC(=O)c3ccccc3)[C@]3(O)C[C@H](OC(=O)[C@H](O)[C@@H](NC(=O)c4ccccc4)c4ccccc4)C(C)=C1C3(C)C)[C@]1(OC(C)=O)CO[C@@H]1C[C@@H]2O [Paclitaxel] | > 40 | 2 | 0 | 0 | none | –
2 | humanized TRA-8: humanized TRA-8, cotransfection of pHB14-1 and pSR/M2-1 (H2 type heavy chain, LM2 light chain) (antibody) VH: EVMLVESGGGLVQPGGSLRLSCAASGFTFSSYVMSWVRQAPGKGLEWVATISSGGSYTYYPDSVKGRFTISRDNAKNTLYLQMNSLRAEDTAVYYCARRGDSMITTDYWGQGTLVTVSS light: DIVMTQSPSSLSASVGDRVTITCKASQDVGTAVAWYQQKPGKAPKLLIYWASTRHTGVPSRFSGSGSGTDFTLTISSLQPEDFATYYCQQYSSYRTFGQGTKVEIKRTVAAPSVFIFPPSDEQLKSGTASVVCLLNNFYPREAKVQWKVDNALQSGNSQESVTEQDSKDSTYSLSSTLTLSKADYEKHKVYACEVTHQGLSSPVTKSFNRGEC | – | – | – | – | – | induce apoptosis
